Source: patent US9751854B2 (Millennium Pharmaceuticals, Inc., priority 2014, dated 2017)

Biological target: human VPS34 (Homo sapiens (Human), UniProt Q8NEB9)
Assay: Human VPS34 enzyme assay (Adapta TR-FRET ADP detection)
Type: biochemical
Set-up: Percent Inhibition: dose or concentration left out as unconfirmed
Details: for IC50: IC50 range class

Chain of human VPS34 (Q8NEB9 whole entry): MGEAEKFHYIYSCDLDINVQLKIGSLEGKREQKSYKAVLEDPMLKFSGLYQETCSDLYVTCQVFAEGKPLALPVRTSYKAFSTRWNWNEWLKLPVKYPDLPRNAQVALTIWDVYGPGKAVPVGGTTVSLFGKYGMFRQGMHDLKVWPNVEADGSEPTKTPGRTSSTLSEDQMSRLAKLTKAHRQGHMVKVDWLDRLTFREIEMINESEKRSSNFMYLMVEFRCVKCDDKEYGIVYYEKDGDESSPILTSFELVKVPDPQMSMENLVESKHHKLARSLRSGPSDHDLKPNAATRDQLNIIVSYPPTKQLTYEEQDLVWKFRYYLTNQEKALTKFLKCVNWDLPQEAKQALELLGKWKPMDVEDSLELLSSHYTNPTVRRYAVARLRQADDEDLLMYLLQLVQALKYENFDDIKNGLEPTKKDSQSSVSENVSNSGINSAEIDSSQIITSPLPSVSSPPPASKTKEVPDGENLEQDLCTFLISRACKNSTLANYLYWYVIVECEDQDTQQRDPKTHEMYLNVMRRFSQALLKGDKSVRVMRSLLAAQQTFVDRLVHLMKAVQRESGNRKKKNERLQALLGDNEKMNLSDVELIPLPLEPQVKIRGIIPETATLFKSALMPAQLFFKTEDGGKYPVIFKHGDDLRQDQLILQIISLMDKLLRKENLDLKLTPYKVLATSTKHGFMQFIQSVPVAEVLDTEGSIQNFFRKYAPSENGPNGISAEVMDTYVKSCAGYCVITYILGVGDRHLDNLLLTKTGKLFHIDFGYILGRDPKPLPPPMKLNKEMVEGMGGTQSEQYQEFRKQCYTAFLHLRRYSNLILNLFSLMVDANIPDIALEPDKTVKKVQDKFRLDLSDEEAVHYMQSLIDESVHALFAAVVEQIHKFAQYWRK

IC50	Percent Inhibition	SMILES
< 10 nM	–	CC(=O)Nc1cc(-c2cnc(C)c(NS(=O)(=O)c3cccc(C(F)(F)F)c3)c2)ccn1 [Compound I-168, N-[6-methyl-5-({[3-(trifluoromethyl)phenyl]sulfonyl}amino)-3,4′-bipyridin-2′-yl]acetamide]
< 10 nM	–	CNc1ncc(-c2ccnc(NC(C)=O)c2)cc1N1CCCS1(=O)=O [Compound I-132, N-[5-(1,1-dioxidoisothiazolidin-2-yl)-6-(methylamino)-3,4′-bipyridin-2′-yl]acetamide]
50 to 100 nM	–	CC(=O)Nc1cc(-c2cnc(N)c(S(=O)(=O)Cc3ccc4ccccc4c3)c2)ccn1 [Compound I-3, N-{6-amino-5-[(2-naphthylmethyl)sulfonyl]-3,4′-bipyridin-2′-yl}acetamide]
< 10 nM	–	Cc1ncc(-c2ccnc(Nc3cnccn3)c2)cc1NS(=O)(=O)c1ccc(F)cc1F [Compound I-310, 2,4-difluoro-N-[6-methyl-2′-(pyrazin-2-ylamino)-3,4′-bipyridin-5-yl]benzenesulfonamide]
10 to 50 nM	–	CC(=O)Nc1cc(-c2cnc(N)c(S(=O)(=O)Cc3ccccc3F)c2)ccn1 [Compound I-197, N-{6-amino-5-[(2-fluorobenzyl)sulfonyl]-3,4′-bipyridin-2′-yl]acetamide]
10 to 50 nM	–	CC(=O)Nc1cc(-c2cnc(C)c(N3CC(NCc4ccccc4)CS3(=O)=O)c2)ccn1 (centres unmarked) [Compound I-357, N-{5-[4-(benzylamino)-1,1-dioxidoisothiazolidin-2-yl]-6-methyl-3,4′-bipyridin-2′-yl}acetamide]
< 10 nM	–	CC(=O)Nc1cc(-c2cnc(N)c(S(=O)(=O)N3CCCC3)c2)ccn1 [Compound I-87, N-[6-amino-5-(pyrrolidin-1-ylsulfonyl)-3,4′-bipyridin-2′-yl]acetamide]
10 to 50 nM	–	Cc1ncc(-c2ccnc(Nc3ccnc(C(F)(F)F)n3)c2)cc1NS(=O)(=O)c1ccc(F)cc1F [Compound I-237, 2,4-difluoro-N-(6-methyl-2′-{[2-(trifluoromethyl)pyrimidin-4-yl]amino}-3,4′-bipyridine-5-yl)benzenesulfonamide]
50 to 100 nM	–	CC(=O)Nc1cc(-c2cnc3c(c2)S(=O)(=O)NCCO3)ccn1 [Compound I-484, N-(4-(1,1-dioxido-3,4-dihydro-2H-pyrido[2,3-b][1,4,5]oxathiazepin-8-yl)pyridin-2-yl)acetamide]
< 10 nM	–	COc1ncc(-c2ccnc(NC(C)=O)c2)cc1S(=O)(=O)Nc1ccccc1 [Compound I-39, N-[6-methoxy-5-(phenylsulfamoyl)-3,4′-bipyridin-2′-yl]acetamide]
> 100 nM	–	CC(=O)Nc1cc(-c2cnc(N(C)C)c(S(=O)(=O)NC(C)(C)C)c2C)ccn1 [Compound I-487, N-[5-(tert-butylsulfamoyl)-6-(dimethylamino)-4-methyl-3,4′-bipyridin-2′-yl]acetamide]
< 10 nM	–	CC(=O)Nc1cc(-c2cnc(C)c(NS(=O)(=O)c3cccc(F)c3)c2)ccn1 [Compound I-155, N-(5-{[(3-fluorophenyl)sulfonyl]amino}-6-methyl-3,4′-bipyridin-2′-yl)acetamide]
10 to 50 nM	–	CC(=O)Nc1cc(-c2cnc(Cl)c(NS(=O)(=O)c3ccc(F)cc3Cl)c2C)ccn1 [Compound I-290, N-(6-chloro-5-{[(2-chloro-4-fluorophenyl)sulfonyl]amino}-4-methyl-3,4′-bipyridin-2′-yl)acetamide]
< 10 nM	–	COc1ncc(-c2ccnc(NC(C)=O)c2)cc1NS(=O)(=O)c1ccc(F)cc1F [Compound I-104, N-(5-{[(2,4-difluorophenyl)sulfonyl]amino}-6-methoxy-3,4′-bipyridin-2′-yl)acetamide]
> 100 nM	–	CC(=O)Nc1cc(-c2cnc(C)c(Nc3nc4ccccc4o3)c2)ccn1 [Compound I-392, N-[5-(1,3-benzoxazol-2-ylamino)-6-methyl-3,4′-bipyridin-2′-yl]acetamide]
10 to 50 nM	–	Cc1nccc(Nc2cc(-c3cnc(Cl)c(N(C)C)c3C)ccn2)n1 [Compound I-314, 6-chloro-N5,N5,4-trimethyl-N2′-(2-methylpyrimidin-4-yl)-3,4′-bipyridine-2′,5-diamine]
10 to 50 nM	–	CC(=O)Nc1cc(-c2cnc(N)c(S(=O)(=O)Nc3ccc4ccccc4c3)c2)ccn1 [Compound I-98, N-[6-amino-5-(2-naphthylsulfamoyl)-3,4′-bipyridin-2′-yl]acetamide]
10 to 50 nM	–	CC(=O)Nc1cc(-c2cnc(C)c(NS(=O)(=O)N3CCC(C)(C)CC3)c2)ccn1 [Compound I-483, N-(5-{[(4,4-dimethylpiperidin-1-yl)sulfonyl]-amino}-6-methyl-3,4′-bipyridin-2′-yl)acetamide]
> 100 nM	–	COc1ncc(-c2ccnc(NC(C)=O)c2)c(C)c1NS(=O)(=O)N(C)C [Compound I-268, N-{5-[(dimethylsulfamoyl)amino]-6-methoxy-4-methyl-3,4′-bipyridin-2′-yl}acetamide]
< 10 nM	–	CC(=O)Nc1cc(-c2cnc(N)c(C(=O)Nc3cccc(F)c3F)c2)ccn1 [Compound I-179, 2′-acetamido-6-amino-N-(2,3-difluorophenyl)-3,4′-bipyridine-5-carboxamide]

IC50	Percent Inhibition	SMILES
10 to 50 nM	–	Cc1nccc(Nc2cc(-c3cnc(Cl)c(N)c3C)ccn2)n1 [Compound I-226, 6-chloro-4-methyl-N-2′-(2-methylpyrimidin-4-yl)-3,4′-bipyridine-2′,5-diamine]
10 to 50 nM	–	CC(=O)Nc1cc(-c2cnc(N(C)C)c(S(=O)(=O)Nc3ccc(F)cc3F)c2)ccn1 [Compound I-491, N-{5-[(2,4-difluorophenyl)sulfamoyl]-6-(dimethylamino)-3,4′-bipyridin-2′-yl}acetamide]
> 100 nM	–	CC(=O)Nc1cc(-c2cnc(N)c(C(=O)NC(=N)N)c2)ccn1 [Compound I-409, 2′-acetamido-6-amino-N-carbamimidoyl-3,4′-bipyridine-5-carboxamide]
< 10 nM	–	COc1ncc(-c2ccnc(NC(C)=O)c2)cc1S(=O)(=O)Nc1ccc(F)cc1F [Compound I-107, N-{5-[(2,4-difluorophenyl)sulfamoyl]-6-methoxy-3,4′-bipyridin-2′-yl]acetamide]
10 to 50 nM	–	CC(=O)Nc1cc(-c2cncc(S(=O)(=O)NC34CC5CC(CC(C5)C3)C4)c2)ccn1 [Compound I-468, N-[5-(adamantan-1-ylsulfamoyl)-3,4′-bipyridin-2′-yl]acetamide]
10 to 50 nM	>99%	CNc1ncc(-c2ccnc(NC(C)=O)c2)cc1NS(=O)(=O)c1ccc(F)cc1F [Compound I-31, N-[5-{[(2,4-difluorophenyl)sulfonyl]amino}-6-(methylamino)-3,4′-bipyridin-2′-yl)acetamide]
< 10 nM	–	CC(=O)Nc1cc(-c2cnc(N)c(C(=O)N3CCC3)c2)ccn1 [Compound I-200, N-[6-amino-5-(azetidin-1-ylcarbonyl)-3,4′-bipyridin-2′-yl]acetamide]
10 to 50 nM	–	CC(=O)Nc1cc(-c2cnc3c(c2)c(S(=O)(=O)N2CCCC2)cn3C)ccn1 [Compound I-151, N-{4-[1-methyl-3-(pyrrolidin-1-ylsulfonyl)-1H-pyrrolo[2,3-b]pyridin-5-yl]pyridin-2-yl}acetamide]
< 10 nM	–	CC(=O)Nc1cc(-c2cnc(C)c(NS(=O)(=O)c3cccc4ccccc34)c2)ccn1 [Compound I-78, N-[6-methyl-5-[(1-naphthylsulfonyl)amino]-3,4′-bipyridin-2′-yl}acetamide]
10 to 50 nM	–	Cc1c(-c2ccnc(NC(=O)C3CC3(F)F)c2)cnc(Cl)c1NS(=O)(=O)c1ccc(F)cc1F (centres unmarked) [Compound I-254, N-(6-chloro-5-{[(2,4-difluorophenyl)sulfonyl]amino}-4-methyl-3,4′-bipyridin-2′-yl)-2,2-difluorocyclopropanecarboxamide]
10 to 50 nM	–	Cc1ccc(Nc2cc(-c3cnc(C)c(NS(=O)(=O)c4ccc(F)cc4F)c3)ccn2)nn1 [Compound I-307, 2,4-difluoro-N-{6-methyl-2′-[(6-methylpyridazin-3-yl)amino]-3,4′-bipyridin-5-yl}benzenesulfonamide]
10 to 50 nM	–	Cc1ncc(-c2ccnc(Nc3ccnc(C4CC4)n3)c2)cc1NC(=O)N1CC(F)(F)C1 [Compound I-368, N-(2′-((2-cyclopropylpyrimidin-4-yl)amino)-6-methyl-[3,4′-bipyridin]-5-yl)-3,3-difluoroazetidine-1-carboxamide]
50 to 100 nM	–	CC(=O)Nc1cc(-c2cnc(N)c(S(=O)(=O)CCc3ccccc3)c2)ccn1 [Compound I-126, N-[6-amino-5-[(2-phenylethyl)sulfonyl]-3,4′-bipyridin-2′-yl]acetamide]
10 to 50 nM	–	CC(=O)Nc1cc(-c2cncc(S(=O)(=O)NC3C4CC5CC(C4)CC3C5)c2)ccn1 (centres unmarked) [Compound I-318, N-[5-(adamantan-2-ylsulfamoyl)-3,4′-bipyridin-2′-yl]acetamide]
10 to 50 nM	–	CNC1CN(c2cc(-c3ccnc(NC(C)=O)c3)cnc2C)S(=O)(=O)C1 (centres unmarked) [Compound I-325, N-{6-methyl-5-[4-(methylamino)-1,1-dioxidoisothiazolidin-2-yl]-3,4′-bipyridin-2′-yl}acetamide]
10 to 50 nM	–	CC(=O)Nc1cc(-c2cncc(S(=O)(=O)N(C)c3ccccc3)c2)ccn1 [Compound I-365, N-{5-[methyl(phenyl)sulfamoyl]-3,4′-bipyridin-2′-yl}acetamide]
> 100 nM	–	CC(=O)Nc1cc(-c2cnc3[nH]ncc3c2)c(C)cn1 [Compound I-209, N-[5-methyl-4-(1H-pyrazolo[3,4-b]pyridin-5-yl)pyridin-2-yl]acetamide]
10 to 50 nM	–	Cc1ccc2ccc(Nc3cc(-c4cnc(C)c(NS(=O)(=O)c5ccc(F)cc5F)c4)ccn3)nc2n1 [Compound I-235, 2,4-difluoro-N-{6-methyl-2′-[(7-methyl-1,8-naphthyridin-2-yl)amino]-3,4′-bipyridin-5-yl}benzenesulfonamide]
> 100 nM	–	Cc1nccc(Nc2cc(-c3cnc4c(c3)C(=O)NCC4)ccn2)n1 [Compound I-406, 3-[2-[(2-methylpyrimidin-4-yl)amino]-4-pyridyl]-7,8-dihydro-6H-1,6-naphthyridin-5-one]
10 to 50 nM	–	CNC(=O)c1cc(-c2ccnc(NC(C)=O)c2)cnc1N [Compound I-57, 2′-acetamido-6-amino-N-methyl-3,4′-bipyridine-5-carboxamide]
